Measured values: ChEMBL document CHEMBL1155134, “Structural basis for the potent calpain inhibitory activity of peptidyl alpha-ketoacids” (J Med Chem, 2008)
Values belong to the molecule of their own block, whether it stands above or below them. Residues, ends and D or L forms follow the SMILES beside them. *: point of attachment. Cbz = O=C(OCc1ccccc1)*

Molecular target: T1, Calpain-1 catalytic subunit (Sus scrofa, UniProt P35750)
T1 sequence (P35750 whole entry): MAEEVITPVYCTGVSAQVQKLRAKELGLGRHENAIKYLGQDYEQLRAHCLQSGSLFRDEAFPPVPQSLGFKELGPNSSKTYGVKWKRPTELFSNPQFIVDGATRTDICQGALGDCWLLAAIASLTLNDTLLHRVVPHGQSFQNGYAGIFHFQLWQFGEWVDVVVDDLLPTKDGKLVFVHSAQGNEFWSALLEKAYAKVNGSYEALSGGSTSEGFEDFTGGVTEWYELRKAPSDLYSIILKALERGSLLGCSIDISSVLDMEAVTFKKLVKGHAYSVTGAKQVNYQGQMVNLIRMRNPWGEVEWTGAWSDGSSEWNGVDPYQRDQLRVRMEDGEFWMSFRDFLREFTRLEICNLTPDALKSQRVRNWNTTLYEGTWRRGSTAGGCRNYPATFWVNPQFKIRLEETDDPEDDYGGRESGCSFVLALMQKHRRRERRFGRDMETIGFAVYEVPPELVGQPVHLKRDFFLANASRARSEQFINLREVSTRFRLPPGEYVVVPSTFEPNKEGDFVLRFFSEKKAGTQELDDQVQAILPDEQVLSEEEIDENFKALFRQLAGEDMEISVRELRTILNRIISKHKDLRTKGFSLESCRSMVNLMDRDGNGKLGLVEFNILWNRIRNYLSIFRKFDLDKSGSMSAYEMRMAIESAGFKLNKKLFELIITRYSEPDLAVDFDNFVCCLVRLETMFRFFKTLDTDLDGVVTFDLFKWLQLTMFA
Test: Inhibition of pig erythrocyte mu-calpain by fluorometric assay

SMILES: COC(=O)C(=O)C(Cc1ccccc1)NC(=O)[C@H](CC(C)C)NC(=O)C(c1ccccc1)c1ccccc1 (mixture of isomers)
Ki: 0.944 µM

SMILES: CC(C)[C@H](NC(=O)OCc1ccccc1)C(=O)N[C@H](C=O)Cc1ccccc1 (Cbz-Val-Phe-aldehyde)
Ki: 0.01 µM

SMILES: COC(=O)C(=O)C(Cc1ccccc1)NC(=O)[C@H](CC(C)C)NC(=O)CC1c2ccccc2-c2ccccc21 (mixture of isomers)
Ki: 1.2 µM

SMILES: COC(=O)C(=O)C(Cc1ccccc1)NC(=O)[C@H](CC(C)C)NC(=O)CCC1CCCCC1 (mixture of isomers)
Ki: 1.05 µM

Next, values leading:

Ki: 0.008 µM
SMILES: CC(C)C[C@H](NC(=O)CC1c2ccccc2-c2ccccc21)C(=O)NC(Cc1ccccc1)C(=O)C(=O)O (mixture of isomers)

Ki: 0.108 µM
SMILES: CC(C)C[C@H](NC(=O)C(c1ccccc1)c1ccccc1)C(=O)NC(Cc1ccccc1)C(=O)C(=O)O (mixture of isomers)

Ki: 0.041 µM
SMILES: CC(C)C[C@H](NC(=O)CC12CC3CC(CC(C3)C1)C2)C(=O)NC(Cc1ccccc1)C(=O)C(=O)O (mixture of isomers)

Ki: 0.063 µM
SMILES: CC(C)C[C@H](NC(=O)CC(c1ccccc1)c1ccccc1)C(=O)NC(Cc1ccccc1)C(=O)C(=O)O (mixture of isomers)

Ki: 0.45 µM
SMILES: COC(=O)C(=O)C(Cc1ccccc1)NC(=O)[C@H](CC(C)C)NC(=O)CC12CC3CC(CC(C3)C1)C2 (mixture of isomers)

Ki: 0.05 µM
SMILES: CC(C)C[C@H](NC(=O)CCC1CCCCC1)C(=O)NC(Cc1ccccc1)C(=O)C(=O)O (mixture of isomers)
